Values of other authors, collected in patent US6409991B1, “Treatment and system for nicotine withdrawal” (priority 1999, dated 2002).

In the case of `CN1CCCC1c1cccnc1` (stereo not shown) [nicotine], the plasma half-life is given as “approximately two”.
